Results reported in patent publication US8859235B2, “Methods in cell cultures, and related inventions, employing certain additives” (priority 2009, dated 2014).

Tests used:
E. coli BL21 [1] = test: Growth and GFPuv expression in E. coli BL21 (DE3), shake flask batch culture in complex medium; format: cell-based, Escherichia coli; conditions: additive 5 mM, 20 h after induction
Procedure: (§1) The measurement of GFP expression by whole cell fluorescence measurements follows the procedure of Scholz et al. (Eur. J. Biochem., 2000,267, 1565-1570). Frozen cell pellets are thawed, resuspended in 1 mL PBS [NaCl (8 g/L), KCl (0.2), of Na2HPO4 (1.44), KH2PO4 (0.24), adjusted to pH 7.4] and subsequently diluted to an optical density of 0.1. GFP fluorescence of whole cells is measured in a Eclipse Fluorometer (Varian) with an excitation wavelength of 400 nm and an emission wavelength of 512 nm. Specific relative fluorescence [RFU/OD600] is calculated by dividing the relative fluorescence emmision units by the optical density of the suspension at 600 nm.
Precultures are prepared in 250 mL baffled shake flasks containing 25 mL sterile LB medium [Tryptone (10.0 g/L), yeast extract (5.0), NaCl (10.0), kanamycin 30 (mg/L); adjusted to pH 7.0 with NaOH]. Cultures are inoculated with 250 μL of a glycerol stock stored at −80° C. of E. coli BL21 [Novagen, Madison, USA; Genotype: E ompT hsdSB (rB^− mB^−) gal dcm (DE3)] harboring the plasmid pET28a-GFPuv which is obtained by inserting the GFPuv gene (isolated from pBAD-GFPuv through PCR) into the EcoRI site of pET28a (Novagen, Madison, USA) which placed the GFPuv gene under the control of the T7/Lac promotor system. Precultures are incubated at 37° C. for 10-12 h.
Experimental cultures are performed in a volume of 25 mL of the above described medium in 250 mL baffled shake flasks. Stabilizers are added to a final concentration of 5 mM as indicated from sterile stock solutions. Cultures are started by inoculating with the preculture to an OD600 at 600 nm of 0.25. Samples are taken for OD600 measurements. Cultures are induced by adding IPTG (Isopropyl-β-D-thiogalactoside) to a final concentration of 0.5 mM when the OD600 reaches 0.5. Samples of 1 mL are taken after induction for OD600 reading and GFP quantification. For GFP quantification 1 mL of the culture is harvested after 2-4 h and after 20 h after induction. Cells are collected by centrifugation at 16 000 g and the cell pellet is stored at −20° C. for further analysis. Analysis of in vivo GFP fluorescence is performed by the method described in Example 1.

E. coli BL21 [2] = test: Time course of growth and GFP expression in E. coli BL21 in high cell density fed-batch cultivation in mineral medium; format: cell-based, Escherichia coli; conditions: for RFU/OD / OD: additive 5 mM; for OD Factor / RFU/OD Factor: additive vs control
Procedure: as §1
E. coli BL21 [Novagen, Madison, USA; Genotype: E ompT hsdSB (rB^− mB^−) gal dcm (DE3)] harboring the plasmid pET28a-GFPuv was constructed as detailed in Example 2. A first preculture is initiated from glycerol stocks stored at −80° C. in 3 mL of LB medium containing 0.01% (v/v) Antifoam A (Fluke). After growth for 10-12 h it is used to seed 2×100 mL of mineral medium (as described in Example 1) containing 0.01% Antifoam A (silicone fluid containing a suspension of finely powdered silica to enhance its defoaming efficiency; Dow Corning Corporation, Midland, Mich., USA), in 1 L baffled shake flasks. After 10-12 h this culture is centrifuged, resuspended in 50 mL mineral medium and is used to inoculate the main culture.
Cultivation is performed in BioFlow110 bioreactors (Total volume 2.2 L; New Brunswick Scientific, Nürtingen, Germany) filled with 1 L of mineral medium plus 0.01% (v/v) Antifoam A for the batch phase. Reactors are equipped with pH, pO2 and foam probes, mass flow controllers to control gas flow and ratio of air and pure oxygen and pumps for automated dosage of base (14% [v/v] aqueous NH3), antifoam (25% [v/v] Antifoam A) and nutrient feed solution. The agitation is set to 500 rpm and air is supplied at a gas flow rate of 2 L/min. The fedbatch culture is inoculated to an OD600 of 0.25-0.5 and allowed to grow unlimited with a specific growth rate of ˜0.5 h^−1. Growth is monitored by measuring OD600. When the dissolved oxygen concentration decreases to 30%, automated adjustment of the air:oxygen ratio in the gas mix is started to control dO2 to 30% using a PID loop. When the gas mix consisted of 100% oxygen a further increase in oxygen transfer is achieved through increasing the agitation rate up to a maximum level of 1200 rpm. When glycerol in the batch medium is completely consumed, as indicated by a distinct drop of pure oxygen in the gas mix, feeding solutions (first containing 70 g/L glycerol and later as cell density increased 200 g/L glycerol in mineral medium) are pumped into the reactor by a predefined exponential fed scheme. The feeding rate is calculated to allow the cells to grow at a growth rate of approximately 0.15 h^−1. During the feeding phase dO2 is also kept at 30%. 3-6 h after starting the feeding protein expression is induced by the addition of 0.2 (w/v) L-arabinose. Samples are taken every hour for OD600 reading and to obtain cell pellets which are stored at −20° C. for further analysis. Analysis of in vivo GFP fluorescence is performed by the method described in Example 1.

[3] = cultivation time 16.5 h, 2.5 h after induction
[4] = cultivation time 20.8 h, 6.0 h after induction
[5] = cultivation time 32.5 h, 18 h after induction

CC1(C)CC(O)CC(C)(C)N1[O] [4-Hydroxy-2,2,6,6-tetramethylpiperidin-1-oxyl]
Growth (Final OD600) (E. coli BL21 [1]; Experiment 1, control 3.4): 2.4 OD600
GFP expression (Relative fluorescence unit*OD600^−1) (E. coli BL21 [1]; Experiment 1, control 584): 1909 Relative fluorescence unit*OD600^−1
Growth (Final OD600) (E. coli BL21 [1]; Experiment 2, control 3.3): 2.61 OD600
GFP expression (Relative fluorescence unit*OD600^−1) (E. coli BL21 [1]; Experiment 2, control 195): 319 Relative fluorescence unit*OD600^−1
RFU/OD (E. coli BL21 [2]; cultivation time 16.5 h, 2.5 h after induction, control 9.1): 107.9 RFU/OD
OD (E. coli BL21 [2]; cultivation time 16.5 h, 2.5 h after induction, control 30.11): 43.57 OD
OD Factor (E. coli BL21 [2]; [3]): 1.45
RFU/OD Factor (E. coli BL21 [2]; [3]): 11.86
OD (E. coli BL21 [2]; cultivation time 20.8 h, 6.0 h after induction, control 48.46): 68.52 OD
RFU/OD (E. coli BL21 [2]; cultivation time 20.8 h, 6.0 h after induction, control 264.7): 678.8 RFU/OD
OD Factor (E. coli BL21 [2]; [4]): 1.41
RFU/OD Factor (E. coli BL21 [2]; [4]): 2.56
OD (E. coli BL21 [2]; cultivation time 32.5 h, 18 h after induction, control 83.39): 94.75 OD
RFU/OD (E. coli BL21 [2]; cultivation time 32.5 h, 18 h after induction, control 486.5): 873 RFU/OD
OD Factor (E. coli BL21 [2]; [5]): 1.14
RFU/OD Factor (E. coli BL21 [2]; [5]): 1.79
